Where “and” joins values, the source holds several entries; their conditions need not be identical. Equal values may be shown once. Read-outs that look alike come from different tables or passages of the source.
Legend:
[1] = system: primary hepatocytes of propionic acidemia patients; experiment: Reduction of 13C-propionyl-CoA and accumulation of compound-CoA ester after 13C-isoleucine challenge (Example 1); type: cell-based; settings: Homo sapiens, Hepatocyte, 13C-labeled isoleucine, compound 0 μM to 1,000 μM
Method: Primary hepatocytes are isolated from explanted livers of propionic acidemia patients and are cultured on day 1 using standard protocols (see: Chapman et al. “Recapitulation of metabolic defects in a model of propionic acidemia using patient-derived primary hepatocytes” Mol. Genet. Metab. 2016, 117(3), 355-362). Approximately 2×10^5 hepatocytes are plated into each well of a collagen-coated 48-well tissue culture plate and pre-conditioned in a custom Modified Corning culture media for Hepatocells (Corning) without low levels of branched chain amino acids for 72 hours. On day 4, hepatocytes are treated with increasing doses of compound (0, 1, 3, 10, 30, 100, 300, 1000 μM) for 30 min. After 30 min the cells are challenged with ^13C-isoleucine (3 mM). At the end of the challenge period, cells are lysed in 100 μL of […] acetonitrile (MeCN) and 0.1% trifluoroacetic acid (TFA) containing 100 μM of ethymalonyl-CoA as an internal standard. Cells are removed from the well by scraping into the lysis buffer. The collected cellular samples are then dispensed into a microfuge tube. The plate wells are washed again with lysis buffer to ensure the remaining cells are dislocated from the well. All remaining collected cells are then moved into the centrifuge tube. The cellular samples are flash frozen in liquid nitrogen and stored at −80° C. To begin processing, the frozen cellular lysates are thawed on ice and vortexed. The samples are centrifuged at 20,000 g for 10 min at 4° C. and the total volume of supernatant is transferred to a no-bind 96-well plate on ice. The samples are dried under vacuum for about 2 hours and then resuspended in 150 μL of water in each well. Total volumes of samples are filtered through a prepared Durapore filter plate into a no-bind 96-well plate. The filtered samples are stored at −80° C. for HTMS/MS analysis.

[2] = system: primary hepatocytes of propionic acidemia patients; experiment: Propionyl-CoA from various sources in PA primary hepatocytes (Examples 2, 3); type: cell-based, human; settings: Homo sapiens, Hepatocyte, read-out: concentration of propionyl-CoA EC50
Method: Primary hepatocytes isolated from livers of propionic acidemia patients are treated with increasing doses of compound 1 (0, 1, 3, 10, 30, 100, 300, 1000 μM) for 30 min. After 30 min the cells are challenged with the different sources of P-CoA, which may include ^13C-ketoisovaleric acid (KIVA) (1 mM), […] (ILE) (3 mM), ^13C-threonine (THR) (5 mM), ^13C-methionine (MET) (5 mM), ^13C-heptanoate (100 μM), or ^13C-propionate (5 mM) for 60 minutes. At the end of the challenge period, media is removed and the cells are lysed with 70% MeCN and 0.1% TFA containing 100 μM of ethymalonyl-CoA as an internal standard and harvested. Cell lysates are processed for HTMS/MS analysis.
Primary hepatocytes isolated from livers of propionic acidemia patients are treated with increasing doses of compound 5 (0, 0.1, 0.3, 1, 3, 10, 30, 100 μM) for 30 minutes. After 30 minutes the cells are challenged with the different sources of P-CoA, which may include ^13C-KIVA (1 mM), ^13C-isoleucine (3 mM), ^13C-threonine (5 mM), ^13C-methionine (5 mM), ^13C-heptanoate (100 μM), or ^13C-propionate (5 mM) for 60 minutes. At the end of the challenge period, media is removed and the cells are lysed with 70% MeCN and 0.1% TFA containing 100 μM of ethymalonyl-CoA as an internal standard and harvested. Cell lysates are processed for HTMS/MS analysis.

PA primary hepatocytes = experiment: HemoShear Technology, PA primary hepatocytes (Examples 10, 11); type: cell-based, human
Source text: For this experiment, we deployed the HemoShear REVEAL-Tx™ technology, which is based on the cone-and-plate configuration or viscometer combined with a porous polycarbonate membrane that mimics a filtering layer of sinusoidal endothelial cells (see: Dash A, Deering TG, Marukian S, et al. Physiological Hemodynamics and Transport Restore Insulin and Glucagon Responses in a Normal Glucose Milieu in Hepatocytes In Vitro. 73rd Scientific Sessions of the American Diabetes Association, 2013 (Chicago), and U.S. Pat. Nos. 7,811,782 and 9,500,642, and 9,617,521, each of which is incorporated by reference herein in its entirety).
Hepatocytes from propionic academia patients are plated in a collagen gel sandwich on one side of the membrane replicating the polarized orientation found in vivo within the hepatic sinusoids. On the other side, medium is continuously perfused and surface shear rates are applied across a range of physiological values derived from sinusoidal flow rates in vivo while also controlling transport in the system with in- and out-flow tubing to each compartment. Effectively, this creates a flow-based culture system where hepatocytes are shielded from direct effects of flow, as they would be in vivo, but perfusion, nutrient gradients, and interstitial fluid movement are maintained.
Biomarker levels are normalized to cell counts and cell volume to account for differences in the number of cells plated for each donor. […] This is most likely due to the presence of ^12C-succinyl-CoA in the sample, which has the same mass. In experiments described below, M-CoA is labeled with ^13C to determine a more accurate percent reduction. Compound 5 reduced the C3 concentration and the C3/C2 ratio with an EC50 similar to that for the reduction in P-CoA (FIGS. 7C, D).

[3] = PA pHeps, HemoShear, average ± SD

Work on CCC(C)(C)C(=O)O [Compound 5, 2,2-dimethybutanoic acid] yielded an EC50 ([1]; read-out: concentration of 12C-Compound-CoA ester EC50) of 0.95 µM, an EC50 ([1]; read-out: concentration of 13C-propionyl-CoA EC50) of 0.43 µM and an EC50 ([2]; 1 mM 13C-KIVA) of 0.89 µM. For the same compound, the EC50 ([2]; 3 mM 13C-ILE) was 0.42 µM, the EC50 ([2]; 5 mM 13C-THR) was 1.24 µM and the EC50 ([2]; 5 mM 13C-propionate) was 15.3 µM. The EC90 (PA primary hepatocytes; Homo sapiens, Hepatocyte, HemoShear, PA and MMA pHeps together, read-out: average EC90 value across all biomarkers) was 17.1 ± 13.4 µM, the EC50 (PA primary hepatocytes; Homo sapiens, Hepatocyte, PA donor 1, representative data (FIG. 7A), read-out: P-CoA reduction EC50) was 1.84 µM and the EC50 (PA primary hepatocytes; Homo sapiens, Hepatocyte, PA donor 1, representative data (FIG. 7E), read-out: MCA reduction EC50) was 1.96 µM. The EC50 (PA primary hepatocytes; Homo sapiens, Hepatocyte, PA pHeps, HemoShear, average ± SD, read-out: 2-Methylcitric acid (2MC) EC50) was 1.1 ± 0.5 µM, the EC90 (PA primary hepatocytes; Homo sapiens, Hepatocyte, PA pHeps, HemoShear, average ± SD, read-out: 2-Methylcitric acid (2MC) EC90) was 7.9 ± 3.6 µM and the EC50 (PA primary hepatocytes; Homo sapiens, Hepatocyte, PA pHeps, HemoShear, average ± SD, read-out: 12C-Acetyl-Camitine (C2) EC50) was 4.8 ± 0.2 µM. It also gave an EC90 (PA primary hepatocytes; Homo sapiens, Hepatocyte, PA pHeps, HemoShear, average ± SD, read-out: 12C-Acetyl-Camitine (C2) EC90) of 20.7 ± 13.1 µM, an EC50 (PA primary hepatocytes; Homo sapiens, Hepatocyte, PA pHeps, HemoShear, average ± SD, read-out: 12C-Propionyl-Carnitine (C3) EC50) of 2.6 ± 1.9 µM and an EC90 (PA primary hepatocytes; Homo sapiens, Hepatocyte, PA pHeps, HemoShear, average ± SD, read-out: 12C-Propionyl-Carnitine (C3) EC90) of 30.8 ± 26.4 µM. It also gave an EC50 (PA primary hepatocytes; Homo sapiens, Hepatocyte, PA pHeps, HemoShear, average ± SD, read-out: 12C-Propionyl-CoA (P-CoA) EC50) of 1.9 ± 1 µM, an EC90 (PA primary hepatocytes; Homo sapiens, Hepatocyte, PA pHeps, HemoShear, average ± SD, read-out: 12C-Propionyl-CoA (P-CoA) EC90) of 18.4 ± 11.3 µM and an EC50 (PA primary hepatocytes; Homo sapiens, Hepatocyte, PA pHeps, HemoShear, read-out: 12C-Acetyl-CoA EC50) of 2.3 ± 1.9 µM. The EC90 (PA primary hepatocytes; Homo sapiens, Hepatocyte, PA pHeps, HemoShear, read-out: 12C-Acetyl-CoA EC90) was 14.4 ± 13.6 µM, the EC50 (PA primary hepatocytes; Homo sapiens, Hepatocyte, PA pHeps, HemoShear, read-out: CoASH EC50) was 11.6 ± 1.2 µM and the EC90 (PA primary hepatocytes; Homo sapiens, Hepatocyte, PA pHeps, HemoShear, read-out: CoASH EC90) was 29.8 ± 24.3 µM. For the same compound, the EC50 (PA primary hepatocytes; Homo sapiens, Hepatocyte, PA pHeps, HemoShear, read-out: Compound 5-CoA (formation) EC50) was 3 ± 1.5 µM, the EC90 (PA primary hepatocytes; Homo sapiens, Hepatocyte, PA pHeps, HemoShear, read-out: Compound 5-CoA (formation) EC90) was 47.1 ± 39.7 µM and the “12C-Acetyl-CoA Percent change at 30 μM” value (PA primary hepatocytes; PA pHeps, HemoShear) was 54 ± 80.6%. For the same compound, the “CoASH Percent change at 30 μM” value (PA primary hepatocytes; PA pHeps, HemoShear) was −31.3 ± 24.2%, the “average reduction in the C3/C2 ratio” value (PA primary hepatocytes; PA pHeps, HemoShear, at 30 μM) was −2.1±1.2 log 2 fold change and the “2-Methylcitric acid (2MC) % change at 30 μM” value (PA primary hepatocytes; [3]) was −78.6±12.9%. For the same compound, the “12C-Acetyl-Camitine (C2) % change at 30 μM” value (PA primary hepatocytes; [3]) was 54 ± 80.6%, the “12C-Propionyl-Carnitine (C3) % change at 30 μM” value (PA primary hepatocytes; [3]) was −68.9±14.6% and −69.4 ± 16.2% and the “12C-Propionyl-CoA (P-CoA) % change at 30 μM” value (PA primary hepatocytes; [3]) was −78.8±10.9%. For the same compound, the EC90 (PA primary hepatocytes; PA pHeps, HemoShear, average ± SD, read-out: 12C-Propionyl-Carnitine (C3) EC90) was 32.1 ± 29.3 µM.

Source: patent publication US20220142955A1, “METHODS OF TREATING ORGANIC ACIDEMIAS” (HemoShear Therapeutics, Inc., priority 2019, published 2022)
